Reference: patent US6583159B1, “Substitute 1-(piperidin-4-yl)-3-(aryl)-isothioureas, their preparation and therapeutic use” (Pierre Fabre Medicament, priority 1999, dated 2003)
Structures can show the parent of a compound that is named as a salt.

How the values were obtained:
rat isolated left atrium = assay: Inhibition of the contraction with veratrine of the rat isolated left atrium; format: cell-based; details: 10^−7M, veratrine-induced contraction
Protocol: The inhibition of the contraction with veratrine of the rat isolated left atrium was carried out according to the technique of Le Grand et al. (Naunyn-Schmiedebergs Arch. Pharmacol., (1993) 348, p. 184-190). The results are shown in Table I below, where the percentages of the inhibition are given at a concentration of 10^−7M.

[1] = system: guinea pig perfused isolated heart; assay: Antiischemic activity, global ischemia in the guinea pig perfused isolated heart; format: cell-based; details: Cavia porcellus, 10^−6M, ischemic contraction vs vehicle group
Protocol: The antiischemic activity was measured with regard to the test of the guinea pig perfused isolated heart according to the technique of Le Grand B. et al. (Am. J. Physiol., 269, H533-H540, 1995). The guinea pig hearts are removed, perfused with a modified Krebs solution and the compound to be studied, in solution in water or in a 99/01 water/DMSO mixture (according to solubility), is added after 20 minutes. […], global ischemia is brought about by halting coronary perfusion for 50 min, followed by reperfusion for 1 h. The inhibition of ischemic contraction in the presence of the compound studied is measured with respect to that of the vehicle group. The results are shown in Table II as nonlimiting examples at a concentration of 10^−6M.

anesthetized rabbit = assay: Ischemia-reperfusion in the anesthetized rabbit, oral; format: in vivo
Description: The compounds of the present invention are also active orally in the test of ischemia-reperfusion in the anesthetized rabbit according to the method of Verscheure et al., (J. Cardiovasc. Pharmacol., 1995, 25, 126-133).

Row | Structure (SMILES) | melting point [°C] | other results
1 | CS/C(=N\c1ccc([N+](=O)[O-])cc1)N(C)C1CCN(CCCCOc2ccc(F)c(F)c2)CC1.O=C(O)/C=C/C(=O)O | 132 | –
2 | CS/C(=N\c1c(F)cccc1F)N(C)C1CCN(CCCCOc2ccc(F)c(F)c2)CC1 [Example 21, 1,2-Dimethyl-1-[1-[4-(3,4-difluorophenoxy)butyl]piperidin-4-yl]-3-(2,6-difluorophenyl)isothiourea hydrogen fumarate] | – | inhibition at 0.1 µM (rat isolated left atrium): 31%; inhibition at 1 µM [1]: 53%
3 | CS/C(=N\c1ccc(C)cc1)N(C)C1CCN(CCCCOc2ccc(F)c(F)c2)CC1.O=C(O)/C=C/C(=O)O | 141 | –
4 | CS/C(=N\c1ccccc1)N(C)C1CCN(CCOc2ccc(F)cc2)CC1.O=C(O)/C=C/C(=O)O | 120 | –
5 | CN(C1=Nc2ccccc2CS1)C1CCN(CCCCOc2ccc(F)c(F)c2)CC1 [PF Control, N-[1-[4-(3,4-Difluorophenoxy)butyl]piperidin-4-yl]-N-methyl-4H-3,1-benzothiazin-2-amine] | – | inhibition at 0.1 µM (rat isolated left atrium): 25%; inhibition at 1 µM [1]: 48%; % arterial pressure variation (anesthetized rabbit; 0.63 mg/kg p.o.): 9%; % heart rate variation (anesthetized rabbit; 0.63 mg/kg p.o.): 9%; % inhibition with regard to ST-segment elevation (anesthetized rabbit; 0.63 mg/kg p.o.): 33%; Number of animals exhibiting reperfusion arrhythmias (anesthetized rabbit; 0.63 mg/kg p.o.): 1/5
6 | CS/C(=N\c1ccc(Cl)cc1)N(C)C1CCN(CCCCOc2ccc(F)c(F)c2)CC1.O=C(O)/C=C/C(=O)O | 130 | –
7 | CS/C(=N\c1c(C)cccc1C)N(C)C1CCN(CCCCOc2ccc(F)c(F)c2)CC1.O=C(O)/C=C/C(=O)O | 129 | –
8 | CS/C(=N\c1ccc(F)cc1)N(C)C1CCN(CCCCOc2ccc(F)c(F)c2)CC1.O=C(O)/C=C/C(=O)O [Example 13, 1,2-Dimethyl-1-[1-[4-(3,4-difluorophenoxy)butyl]piperidin-4-yl]-3-(4-fluorophenyl)isothiourea hydrogen fumarate] | 125 | inhibition at 0.1 µM (rat isolated left atrium): 34%
9 | CN(c1nc2ccccc2s1)C1CCN(CCCCOc2ccc(F)cc2)CC1 [R 56865, N-(1-(4-(4-Fluorophenoxy)butyl)piperidin-4-yl)-N-methyl-2-benzothiazolamine] | – | inhibition at 0.1 µM (rat isolated left atrium): 33%; % arterial pressure variation (anesthetized rabbit; 2.5 mg/kg p.o.): 27%; % heart rate variation (anesthetized rabbit; 2.5 mg/kg p.o.): 0%; % inhibition with regard to ST-segment elevation (anesthetized rabbit; 2.5 mg/kg p.o.): 0%; Number of animals exhibiting reperfusion arrhythmias (anesthetized rabbit; 2.5 mg/kg p.o.): 2/5
10 | CS/C(=N\c1ccccc1)N(C)C1CCN(CCCOCCc2ccc(F)cc2)CC1.O=C(O)/C=C/C(=O)O | 110 to 111 | –
11 | CS/C(=N\c1ccccc1F)N(C)C1CCN(CCCCOc2ccc(F)c(F)c2)CC1.O=C(O)/C=C/C(=O)O | 148 | –
12 | CS/C(=N\c1c(C(C)C)cccc1C(C)C)N(C)C1CCN(CCCCOc2ccc(F)c(F)c2)CC1.O=C(O)/C=C/C(=O)O | 194 | –
13 | CS/C(=N\c1cccc(F)c1)N(C)C1CCN(CCCCOc2ccc(F)c(F)c2)CC1.O=C(O)/C=C/C(=O)O | 133 | –

Second part, led by results:

Row | melting point [°C] | Structure (SMILES) | other results
14 | 120 to 121 | CCN(/C(=N/c1ccccc1)SC)C1CCN(CCCCOc2ccc(F)c(F)c2)CC1.O=C(O)/C=C/C(=O)O [Example 3, 1-Ethyl-1-[1-[4-(3,4-difluorophenoxy)butyl]piperidin-4-yl]-2-methyl-3-phenylisothiourea hydrogen fumarate] | inhibition at 0.1 µM (rat isolated left atrium): 32%
15 | 133 to 134 | CS/C(=N\c1ccccc1)N(C)C1CCN(CCCCOc2ccc(F)cc2)CC1.O=C(O)/C=C/C(=O)O | –
16 | 138 to 139 | CS/C(=N\c1ccccc1)N(C)C1CCN(CCCCOc2ccc(C)c(C)c2)CC1.O=C(O)/C=C/C(=O)O | –
17 | 151 to 152 | CS/C(=N\c1ccccc1)N(C)C1CCN(CCCCOc2ccc(F)c(F)c2)CC1.O=C(O)/C=C/C(=O)O [Example 1, 1,2-Dimethyl-3-phenyl-1-[1-[4-(3,4-difluorophenoxy)butyl]piperidin-4-yl]isothiourea hydrogen fumarate] | inhibition at 0.1 µM (rat isolated left atrium): 28%; inhibition at 1 µM [1]: 69%; % arterial pressure variation (anesthetized rabbit; 0.63 mg/kg p.o.): −3%; % heart rate variation (anesthetized rabbit; 0.63 mg/kg p.o.): 5%; % inhibition with regard to ST-segment elevation (anesthetized rabbit; 0.63 mg/kg p.o.): 58%; Number of animals exhibiting reperfusion arrhythmias (anesthetized rabbit; 0.63 mg/kg p.o.): 1/5
18 | 131 to 132 | CS/C(=N\c1ccccc1)N(CC(C)C)C1CCN(CCCCOc2ccc(F)c(F)c2)CC1.O=C(O)/C=C/C(=O)O | –
19 | 151 to 152 | CCS/C(=N\c1ccccc1)N(C)C1CCN(CCCCOc2ccc(F)c(F)c2)CC1.O=C(O)/C=C/C(=O)O | –
20 | 130 | COc1ccc(/N=C(\SC)N(C)C2CCN(CCCCOc3ccc(F)c(F)c3)CC2)cc1.O=C(O)/C=C/C(=O)O | –
21 | 129 to 130 | CS/C(=N\c1ccccc1)N(C)C1CCN(CCCCCOc2ccc(F)c(F)c2)CC1.O=C(O)/C=C/C(=O)O | –
22 | 106 to 107 | COc1cc(Cl)ccc1OCCCCN1CCC(N(C)/C(=N/c2ccccc2)SC)CC1.O=C(O)/C=C/C(=O)O | –
23 | 120 | COc1ccc(OCCCCN2CCC(N(C)/C(=N/c3ccccc3)SC)CC2)cc1.O=C(O)/C=C/C(=O)O | –
24 | 106 to 107 | CS/C(=N\c1ccccc1)N(C)C1CCN(CCCOc2ccc(F)c(F)c2)CC1.O=C(O)/C=C/C(=O)O | –
